This assay concerns S. aureus. Nature of the assay: Biofilm formation on polystyrene microtitre plates (crystal violet, O.D.570). In kind it is cell-based, Staphylococcus aureus. The procedure: Effect of c-di-GMP on S. aureus biofilm formation. S. aureus strains were subcultured from glycerol stocks onto blood agar plates and incubated at 37° C. for 18 h. A single colony was inoculated into 5 ml TSB broth with a sterilized loop and incubated at 37° C. for 18 h with shaking at 250 rpm and until the O.D.660 reached 3.0 as measured spectrophotometrically using a spectrophotometer (SpectraMAX 250, Molecular Devices). Following incubation, the culture was diluted 1:250 with fresh TSB and a 200 μl of the diluted culture was transferred into wells of a flat-bottom polystyrene microtitre plate (Evergreen Scientific). […] In these biofilm experiments, similar volumes of 0.9% NaCl was added to a set of different wells representing the “untreated” control samples. The microtitre plates were then incubated statically at 37° C. for 24 h or 48 h. Following incubation, the supernatant was carefully discarded and the wells washed twice with 260 μl PBS. The plate was then kept for drying on a paper towel for 30 min after which 260 μl 0.1% crystal violet was added to each well and the plates incubated at room temperature for 30 min. The crystal violet was discarded and plate washed gently with water, the wells allowed to dry for 30 min then 260 μl DMSO was added to each well and gently agitated for 1 h and the O.D.570 measured by using a spectrophotometer (SpectraMAX 250, Molecular Devices). The results of these biofilm assays were based on data obtained from at least three independent colonies tested in duplicate.

Molecules are shown by their SMILES. Bounds are passed on as bounds.

As for `Nc1nc2c(ncn2C2OC3COP(=O)(O)OC4C(COP(=O)(O)OC3C2O)OC(n2cnc3c(=O)[nH]c(N)nc32)C4O)c(=O)[nH]1` (centres unmarked) [c-di-GMP, 3′,5′-cyclic diguanylic acid], the “reduction of biofilm formation” value (DK825, 20 μM, 24 h) is ~50%; the “reduction of biofilm formation” value (DK825, 200 μM, 24 h) is listed as ~65%; the “reduction of biofilm formation” value (DK825, 400 μM, 24 h) is recorded as ~85%; the “reduction of biofilm formation” value (bovine strains V329, M556, V299, V315) is listed as 50-70%. In addition, the “reduction of cell-to-surface interactions and biofilm formation” value (human and bovine isolates vs untreated controls) was > 50%.

These data come from patent US8367716B2 (priority 2003, dated 2013).
